Measurements: US11051515B2, “3-acyl-benzamides and their use as herbicides” (Bayer Aktiengesellschaft, priority 2017, dated 2021)

Tests used:
LOLMU [1] = assay: Post-emergence action against LOLMU; type: in vivo, Lolium multiflorum; settings: Lolium multiflorum, 504 h, dosage 80 g/ha, visual assessment about 3 weeks after treatment vs untreated controls, read-out: Post-emergence action against LOLMU (herbicidal action in percent)
Description: Seeds of monocotyledonous and dicotyledonous weed and crop plants are laid out in sandy loam soil in wood-fiber pots, covered with soil and cultivated in a greenhouse under good growth conditions. 2 to 3 weeks after sowing, the test plants are treated at the one-leaf stage. The compounds of the invention, formulated in the form of wettable powders (WP) or as emulsion concentrates (EC), are then sprayed onto the green parts of the plants in the form of an aqueous suspension or emulsion at a water application rate equating to […], with addition of 0.2% wetting agent. After the test plants have been left to stand in the greenhouse under optimal growth conditions for about 3 weeks, the action of the preparations is assessed visually in comparison to untreated controls (herbicidal action in percent (%): 100% activity=the plants have died, 0% activity=like control plants). […] At the same time, inventive compounds leave Gramineae crops such as barley, wheat, rye, millet/Sorghum, corn or rice virtually undamaged when applied post-emergence, even at high active ingredient dosages. In addition, some substances are also harmless to dicotyledonous crops such as soya, cotton, oilseed rape, sugar beet or potatoes. Some of the compounds according to the invention have high selectivity and are therefore suitable for controlling unwanted vegetation in agricultural crops by the post-emergence method. The data of Tables B18 to B34 below illustrate, in an exemplary manner, the […] herbicidal action of the compounds according to the invention, the herbicidal activity being stated in percent.

VERPE [2] = assay: Post-emergence action against VERPE; type: in vivo, Veronica persica; settings: Veronica persica, 504 h, dosage 80 g/ha
Procedure, shortened: (§1)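 Weeds grown in sandy loam in greenhouse, treated at one-leaf stage (2–3 weeks after sowing) with WP or EC formulations sprayed as aqueous suspension/emulsion at 600 to […] water with 0.2% wetting agent. Visual rating after about 3 weeks versus untreated controls, as % herbicidal action (100% = plants dead, 0% = like control).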

ABUTH [3] = assay: Pre-emergence action against ABUTH; type: in vivo, Abutilon theophrasti; settings: Abutilon theophrasti, 504 h; pre-emergence, dosage 320 g/ha, scored visually after 3 weeks vs untreated controls; read-out: Pre-emergence action against ABUTH (herbicidal activity)
Procedure, shortened: (§2)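 Seeds sown in sandy loam in wood-fiber pots and covered with soil. Greenhouse growth; visual damage scored after 3 weeks versus untreated controls (100% = dead, 0% = like control).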

ALOMY [4] = assay: Pre-emergence action against ALOMY; type: in vivo, Alopecurus myosuroides; settings: Alopecurus myosuroides, 504 h; dosage 320 g/ha; pre-emergence; scored visually after 3 weeks vs untreated controls; 100% = plants have died, 0% = like control plants; read-out: Pre-emergence action against ALOMY (herbicidal activity in percent)
Procedure, shortened: as §2

ABUTH [5] = assay: Post-emergence action against ABUTH; type: in vivo, Abutilon theophrasti; settings: Abutilon theophrasti, 504 h; post-emergence, dosage 80 g/ha, visual assessment about 3 weeks after treatment vs untreated controls; read-out: Post-emergence action against ABUTH (herbicidal action in percent)
Procedure, shortened: as §1

STEME [6] = assay: Post-emergence action against STEME; type: in vivo, Stellaria media; settings: Stellaria media, 504 h; post-emergence, dosage 80 g/ha
Procedure, shortened: as §1

CYPES [7] = assay: Pre-emergence action against CYPES; type: in vivo, Cyperus esculentus; settings: Cyperus esculentus, 504 h; pre-emergence, dosage 320 g/ha, scored visually after 3 weeks vs untreated controls; read-out: Pre-emergence action against CYPES (herbicidal activity)
Procedure, shortened: as §2

AMARE [8] = assay: Pre-emergence action against AMARE; type: in vivo, Amaranthus retroflexus; settings: Amaranthus retroflexus, 504 h; pre-emergence, dosage 320 g/ha, scored visually after 3 weeks vs untreated controls; read-out: Pre-emergence action against AMARE (herbicidal activity)
Procedure, shortened: as §2

ECHCG [9] = assay: Pre-emergence action against ECHCG; type: in vivo, Echinochloa crus-galli; settings: Echinochloa crus-galli, 504 h; pre-emergence, dosage 320 g/ha, scored visually after 3 weeks vs untreated controls; read-out: Pre-emergence action against ECHCG (herbicidal activity)
Procedure, shortened: as §2

CYPES [10] = assay: Post-emergence action against CYPES; type: in vivo, Cyperus esculentus; settings: Cyperus esculentus, 504 h; post-emergence, dosage 80 g/ha, visual assessment about 3 weeks after treatment vs untreated controls; read-out: Post-emergence action against CYPES (herbicidal action in percent)
Procedure, shortened: as §1

AVEFA = assay: Pre-emergence action against AVEFA; type: in vivo, Avena fatua; settings: Avena fatua, 504 h, dosage 320 g/ha, scored visually after 3 weeks vs untreated controls, read-out: Pre-emergence action against AVEFA (herbicidal activity)
Procedure, shortened: as §2

VIOTR = assay: Post-emergence action against VIOTR; type: in vivo, Viola tricolor; settings: Viola tricolor, 504 h; post-emergence, dosage 80 g/ha
Procedure, shortened: as §1

VERPE [11] = assay: Pre-emergence action against VERPE; type: in vivo, Veronica persica; settings: Veronica persica, 504 h; Dosage 320 g/ha, pre-emergence
Procedure, shortened: as §2

ECHCG [12] = assay: Post-emergence action against ECHCG; type: in vivo, Echinochloa crus-galli; settings: Echinochloa crus-galli, 504 h; post-emergence, dosage 80 g/ha, visual assessment about 3 weeks after treatment vs untreated controls; read-out: Post-emergence action against ECHCG (herbicidal action in percent)
Procedure, shortened: as §1

PHBPU [13] = assay: Post-emergence action against PHBPU; type: in vivo, Pharbitis purpurea; settings: Ipomoea purpurea, 504 h; post-emergence, dosage 80 g/ha
Procedure, shortened: as §1

STEME [14] = assay: Pre-emergence action against STEME; type: in vivo, Stellaria media; settings: Stellaria media, 504 h; Dosage 320 g/ha, pre-emergence
Procedure, shortened: as §2

PHBPU [15] = assay: Pre-emergence action against PHBPU; type: in vivo, Pharbitis purpurea; settings: Ipomoea purpurea, 504 h; Dosage 320 g/ha, pre-emergence
Procedure, shortened: as §2

POLCO [16] = assay: Post-emergence action against POLCO; type: in vivo, Polygonum convolvulus; settings: Fallopia convolvulus, 504 h; post-emergence, dosage 80 g/ha
Procedure, shortened: as §1

ALOMY [17] = assay: Post-emergence action against ALOMY; type: in vivo, Alopecurus myosuroides; settings: Alopecurus myosuroides, 504 h; Dosage 80 g/ha, post-emergence
Procedure, shortened: as §1

SETVI [18] = assay: Post-emergence action against SETVI; type: in vivo, Setaria viridis; settings: Setaria viridis, 504 h; post-emergence, dosage 80 g/ha, visual assessment about 3 weeks after treatment vs untreated controls; read-out: Post-emergence action against SETVI (herbicidal action in percent)
Procedure, shortened: as §1

AMARE [19] = assay: Post-emergence action against AMARE; type: in vivo, Amaranthus retroflexus; settings: Amaranthus retroflexus, 504 h; post-emergence, dosage 80 g/ha, visual assessment about 3 weeks after treatment vs untreated controls; read-out: Post-emergence action against AMARE (herbicidal action in percent)
Procedure, shortened: as §1

MATIN [20] = assay: Post-emergence action against MATIN; type: in vivo, Matricaria inodora; settings: Tripleurospermum inodorum, 504 h; post-emergence, dosage 80 g/ha, visual assessment about 3 weeks after treatment vs untreated controls; read-out: Post-emergence action against MATIN (herbicidal action in percent)
Procedure, shortened: as §1

MATIN [21] = assay: Pre-emergence action against MATIN; type: in vivo, Matricaria inodora; settings: Tripleurospermum inodorum, 504 h; Dosage 320 g/ha, pre-emergence
Procedure, shortened: as §2

LOLMU [22] = assay: Pre-emergence action against LOLMU; type: in vivo, Lolium multiflorum; settings: Lolium multiflorum, 504 h, dosage 320 g/ha, scored visually after 3 weeks vs untreated controls, read-out: Pre-emergence action against LOLMU (herbicidal activity)
Procedure, shortened: as §2

SETVI [23] = assay: Pre-emergence action against SETVI; type: in vivo, Setaria viridis; settings: Setaria viridis, 504 h; pre-emergence, dosage 320 g/ha, scored visually after 3 weeks vs untreated controls; read-out: SETVI (Table B8, pre-emergence herbicidal activity)
Procedure, shortened: as §2

POLCO [24] = assay: Pre-emergence action against POLCO; type: in vivo, Polygonum convolvulus; settings: Fallopia convolvulus, 504 h; Dosage 320 g/ha, pre-emergence
Procedure, shortened: as §2

Compound: CCC(=O)c1c(Cl)ccc(C(=O)Nc2nnnn2C)c1Cl [1-115]
- pest or weed control at 80 g/ha (LOLMU [1]): 90%
- pest or weed control at 80 g/ha (VERPE [2]): 100%
- pest or weed control at 320 g/ha (ABUTH [3]): 100%
- pest or weed control at 320 g/ha (ALOMY [4]): 100%
- pest or weed control at 80 g/ha (ABUTH [5]): 90%
- pest or weed control at 80 g/ha (STEME [6]): 100%
- pest or weed control at 320 g/ha (CYPES [7]): 100%
- pest or weed control at 320 g/ha (AMARE [8]): 100%
- pest or weed control at 320 g/ha (ECHCG [9]): 100%
- pest or weed control at 80 g/ha (CYPES [10]): 90%
- pest or weed control at 320 g/ha (AVEFA): 100%
- pest or weed control at 80 g/ha (VIOTR): 100%
- pest or weed control at 320 g/ha (VERPE [11]): 100%
- pest or weed control at 80 g/ha (ECHCG [12]): 90%
- pest or weed control at 80 g/ha (PHBPU [13]): 90%
- pest or weed control at 320 g/ha (STEME [14]): 100%
- pest or weed control at 320 g/ha (PHBPU [15]): 90%
- pest or weed control at 80 g/ha (POLCO [16]): 100%
- pest or weed control at 80 g/ha (ALOMY [17]): 90%
- pest or weed control at 80 g/ha (SETVI [18]): 90%
- pest or weed control at 80 g/ha (AMARE [19]): 90%
- pest or weed control at 80 g/ha (MATIN [20]): 100%
- pest or weed control at 320 g/ha (MATIN [21]): 100%
- pest or weed control at 320 g/ha (LOLMU [22]): 100%
- pest or weed control at 320 g/ha (SETVI [23]): 90%
- pest or weed control at 320 g/ha (POLCO [24]): 80%
